Results on 16 molecules are retold here after patent publication US12246005B2, “5-methoxy-n,n-dimethyltryptamine (5-MeO-DMT) formulations” (Beckley Psytech Limited, priority 2023, dated 2025).

Entries after “also recorded” stand apart in the source; their conditions may differ. Structures can show the parent of a compound that is named as a salt.

The AUC is the area under the concentration-time curve, a measure of exposure. As usually defined, the Cmax is the peak of the concentration-time curve.

The nature of data set [1]: Thermal decomposition properties of salt forms (TGA). In kind it is physicochemical. The source says: The thermal decomposition properties of a range of salt forms of 5-MeO-DMT has been investigated and is summarised in the report below: […]
Data set [2] in a line: Previous preclinical work in dogs defining maximum exposure limits. The note with it: dog, in vivo.
Data set [3] is described as follows: Phase 1 single ascending dose study of intranasal 5-MeO-DMT benzoate (safety, tolerability, pharmacokinetics). In kind it is in vivo, human. The source says:
(§1) The applicant has funded double-blind, randomized, Phase 1, single ascending dose studies to evaluate the safety, tolerability and pharmacokinetic profile of intranasal 5-MeO-DMT hydrochloride and intranasal 5-MeO-DMT benzoate in healthy subjects. […] It is desirable that a compound for use in treatment has dose-proportional pharmacokinetics, for example, to facilitate dose and dose regimen adjustment in patients. In an embodiment, there is provided a salt of 5-MeO-DMT with dose-proportional pharmacokinetics, optionally for use in the methods disclosed herein. In an embodiment, the salt of 5-MeO-DMT with dose-proportional pharmacokinetics is the benzoate or HBr salt, optionally the benzoate salt. A double-blind, randomized, Phase 1, single ascending dose study to evaluate the safety, tolerability and pharmacokinetic profile of a liquid intranasal 5-MeO-DMT HCl (5-MeO-DMT HCl, HPMC, water for injection (WFI) and a sodium hydroxide solution to adjust pH) formulation in healthy subjects was performed.
A double-blind, randomized, Phase 1, single ascending dose study to evaluate the safety, tolerability and pharmacokinetic profile of intranasal 5-MeO-DMT benzoate in healthy subjects was performed.

A short description of another data set: Hygroscopicity. In kind it is physicochemical. The source says: In an embodiment, the formulation is non-hygroscopic. […] Hygroscopicity is the phenomenon of attracting and holding water molecules via either adsorption or absorption from the surrounding environment. Pharmaceuticals that pick up less than 0.2% moisture at 80% RH are considered non hygroscopic. […] Pharmaceuticals that pick up more than 15.0% moisture at 80% RH are considered very hygroscopic. Hygroscopic substances are difficult to handle and costly and burdensome measures must be taken in order to ensure they are not exposed to moisture during process and formulation. Exposed to moisture, hygroscopic substances can take on water and convert to a hydrous form. This presents several disadvantages. First, the hydrous forms may have the disadvantage of being less bioavailable and less dissoluble than the anhydrous forms. Second, the variation in the amount of hydrous versus anhydrous substance from batch to batch could fail to meet specifications set by drug regulatory agencies. […] Fourth, in addition to problems caused by introduction of moisture during the processing of these hygroscopic substances, the potential for absorbance of moisture during storage and handling would adversely affect the dissolubility of the drug substance.

Data set [4] is described as follows: Phase 1 single ascending dose study of liquid intranasal 5-MeO-DMT HCl formulation. It is filed as in vivo, human. The note with it: liquid intranasal formulation, 5, 8, 10, 11 and 14 mg, healthy subjects.
Text: as §1

The conditions of data set [5]: at 20° C. water; cited from earlier work.
Data set [6] in a line: Solubility studies of lyophilised amorphous form (dissolution rate). In kind it is physicochemical. The source says: Amorphous 5-MeO-DMT salt formulations have been produced via lyophilisation processes. It is noted that in some cases these have low glass transition temperatures. Conversion to a crystalline form may therefore occur, perhaps rapidly.
Another data set in a line: Irritation tolerability. As to conditions: in particular when compared to the chloride salt.

Take `COc1ccc2[nH]cc(CCN(C)C)c2c1` [Tosylate, 5-MeO-DMT tosylate]: the “TGA Guidance: decomposition temperature” value in data set [1] is “Melt 110° C, gross dcomp starts 280 °C ° C”.

As to `COc1ccc2[nH]cc(CCN(C)C)c2c1.O=C(O)C(=O)O` [Oxalate, 5-MeO-DMT oxalate], the “TGA Guidance: mass loss” value in data set [1] is listed as “Melts 176° C., full mass loss”.

In the case of `COc1ccc2[nH]cc(CCN(C)C)c2c1` [Phosphate, 5-MeO-DMT phosphate], in data set [1], the “TGA Guidance: decomposition temperature” value was “Decomp around 200 °C”.

In the case of `COc1ccc2[nH]cc(CCN(C)C)c2c1` [Ketoglutarate, 5-MeO-DMT ketoglutarate], the “TGA Guidance: decomposition temperature” value in data set [1] is “Melt 85° C., gross dcomp starts 170 °C”.

For the molecule `COc1ccc2[nH]cc(CCN(C)C)c2c1` [Fumarate, 5-MeO-DMT fumarate], the “TGA Guidance: decomposition temperature” value in data set [1] is “Decomp around 200 °C”.

As to `COc1ccc2[nH]cc(CCN(C)C)c2c1` [Example 5-MeO-DMT, 5-methoxy-N,N-dimethyltryptamine], the AUC in data set [2] (read-out: maximum exposure limit AUC) was 220 ng·h/mL. Also, the Cmax in data set [2] (read-out: maximum exposure limit Cmax) worked out at 421 ng/mL.

In the case of `COc1ccc2[nH]cc(CCN(C)C)c2c1` [Saccharinate, 5-MeO-DMT saccharinate], the “TGA Guidance: decomposition temperature” value in data set [1] was “Melt 80° C., gross dcomp starts 180 °C”.

As to `CN(C)CCc1c[nH]c2ccc(O)cc12` [Bufotenin], the “detection of metabolite in plasma” value in data set [3] (after intranasal 5-MeO-DMT benzoate, 6 mg dose level, after the 16 minutes timepoint) is reported as “only detected at very low levels”.

Turning to `COc1ccc2[nH]cc(CCN(C)C)c2c1.O=S(=O)(O)c1ccccc1` [Benzenesulfonate, 5-MeO-DMT benzenesulfonate], the “TGA Guidance: decomposition temperature” value in data set [1] is “Melt 76° C., gross dcomp starts 280 °C”.

Regarding `Br.COc1ccc2[nH]cc(CCN(C)C)c2c1` [Hydrobromide, 5-MeO-DMT hydrobromide], in data set [1], the “TGA Guidance: decomposition temperature” value is “Melt 149° C., gross dcomp starts 220 °C”. Also, the hygroscopicity entry in the data set “Hygroscopicity” is “non-hygroscopic”.

On to `COc1ccc2[nH]cc(CCN(C)C)c2c1.Cl` [5-MeO-DMT HCl, 5-MeO-DMT hydrochloride], for which the “dose proportionality of pharmacokinetics” value in data set [4] is on record as “does not display dose-proportional pharmacokinetics”.

For the molecule isomalt, the Solubility in data set [5] was 42 g/100 g solution.

For the molecule 5-MeO-DMT malate, the “TGA Guidance: decomposition temperature” value in data set [1] is “Melt 100° C, gross dcomp starts 250 °C”.

Regarding 5-MeO-DMT glycolate, in data set [1], the “TGA Guidance: decomposition temperature” value is “Melt 95° C., gross dcomp starts 170 °C”.

`COc1ccc2[nH]cc(CCN(C)C)c2c1.O=C(O)c1ccccc1` [5-MeO-DMT benzoate]: the “dose proportionality of pharmacokinetics” value in data set [3] (intranasal single ascending dose, healthy subjects) is recorded as “exhibits dose-proportional pharmacokinetics; also recorded: approximately dose linear”. Further, in data set [3] (intranasal, 12 mg dosage, healthy subjects, plasma 5-MeO-DMT), the “mean Cmax” value was 29 ng/mL. In data set [3] (intranasal, healthy subjects), the “mean Tmax” value worked out at 9.5 min and the “mean half-life (T1/2)” value is 21 min. In addition, in data set [1], the “TGA Guidance: decomposition temperature” value is around 220 °C and the “TGA Guidance: mass loss” value is recorded as “full mass loss”. For the same molecule, the dissolution rate result in data set [6] is “almost instantaneous dissolution rate”. Moreover, in the data set “Irritation tolerability”, the irritation tolerability entry is “good irritation tolerability”.

For 5-MeO-DMT tartrate, the “TGA Guidance: decomposition temperature” value in data set [1] was “Melt ~140° C., decomp ~200 °C”.
